Data on 17 molecules can be found in patent publication US20230077362A1 (CORTEVA AGRISCIENCE LLC, priority 2019, published 2023).

Structures are written as SMILES. Read-outs that look alike come from different tables or passages of the source.

Common to all, as to assay type: in vivo
Experiment [1] deals with Green Peach Aphid ("GPA") (Myzus persicae), wingless adult and nymph stages. The experiment is described as follows: Bioassay on green peach aphid (GPA), foliar spray on infested cabbage seedlings. The following applies: Myzus persicae, foliar, 72 h. In outline:
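Values are corrected % control, 100*(X−Y)/X, from live aphid counts per plant under a microscope, treated versus solvent-check plants. Four infested seedlings (20-50 GPA each) per treatment were sprayed to runoff and kept three days near 25° C at ambient RH.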

The test system of experiment [2] is Cabbage Looper (Trichoplusia ni) ("CL"), second instar larvae. The experiment is described as follows: Bioassay on cabbage looper (CL), 128-well diet tray assay. The following applies: Trichoplusia ni. In outline:
(§1)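 Read-out: percent larval mortality per well, averaged over 8 wells. Incubation 25° C., 14:10 L:D photoperiod, 5–7 days, trays sealed with clear adhesive cover.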

Experiment [3] concerns Beet Armyworm (Spodoptera exigua) ("BAW"), second instar larvae. The experiment in a line: Bioassay on beet armyworm (BAW), 128-well diet tray assay. The conditions noted are these: Spodoptera exigua. In outline: as §1
The mark [4] stands for this setting: read-out: GPA (Biological Results, rating).
The mark [5] stands for this setting: read-out: CL (Biological Results, rating).
The mark [6] stands for this setting: read-out: BAW (Biological Results, rating).

For the molecule `Cc1ccc(-n2cnc(-c3ccc(NC(=O)/N=C4\SCC(=O)N4c4cc(C)ccc4OCCC(F)(F)F)c(F)c3)n2)cc1` [Compound J151, (Z)-1-(2-Fluoro-4-(1-(p-tolyl)-1H-1,2,4-triazol-3-yl)phenyl)-3-(3-(5-methyl-2-(3,3,3-trifluoropropoxy)phenyl)-4-oxothiazolidin-2-ylidene)urea], the pest or weed control at 200 µg/mL in experiment [1] (setting [4]) lay within 0 to 80%. Further, the pest or weed control at 50 µg/cm2 in experiment [2] (setting [5]) and in experiment [3] (setting [6]) was 50 to 100% throughout.

As for `Cc1ccc(COCC(F)(F)F)c(N2C(=O)CS/C2=N\C(=O)Nc2ccc(-c3ncn(-c4ccc(S(=O)(=O)C(F)(F)F)cc4)n3)cc2C)c1` [Compound J365, (Z)-1-(3-(5-Methyl-2-((2,2,2-trifluoroethoxy)methyl)phenyl)-4-oxothiazolidin-2-ylidene)-3-(2-methyl-4-(1-(4-((trifluoromethyl)sulfonyl)phenyl)-1H-1,2,4-triazol-3-yl)phenyl)urea], the pest or weed control at 200 µg/mL in experiment [1] (read-out: GPA rating) lay in the range of 0 to 80%. The pest or weed control at 50 µg/cm2 in experiment [2] (read-out: CL rating) and in experiment [3] (read-out: BAW rating) was 50 to 100% throughout.

On to `CCOC(C)c1ccc(C)cc1N1C(=O)CS/C1=N\C(=O)Nc1ccc(-c2ncn(-c3ccc(OC(F)(F)F)cc3)n2)cc1C` (stereo not drawn) [Compound J141, (Z)-1-(3-(2-(1-Ethoxyethyl)-5-methylphenyl)-4-oxothiazolidin-2-ylidene)-3-(2-methyl-4-(1-(4-(trifluoromethoxy)phenyl)-1H-1,2,4-triazol-3-yl)phenyl)urea], for which, in experiment [1] (setting [4]), the pest or weed control at 200 µg/mL lay in the range of 0 to 80%. Moreover, the pest or weed control at 50 µg/cm2 in experiment [2] (setting [5]) and in experiment [3] (setting [6]) was 50 to 100% throughout.

`CCc1cc(-c2ncn(-c3ccc(OC(F)(F)F)cc3)n2)ccc1NC(=O)/N=C1\SCC(=O)N1c1cc(OC)ccc1C(C)C` [Compound J71, (Z)-1-(2-Ethyl-4-(1-(4-(trifluoromethoxy)phenyl)-1H-1,2,4-triazol-3-yl)phenyl)-3-(3-(2-isopropyl-5-methoxyphenyl)-4-oxothiazolidin-2-ylidene)urea]: in experiment [1] (setting [4]), the pest or weed control at 200 µg/mL is 0 to 80%. The pest or weed control at 50 µg/cm2 in experiment [2] (setting [5]) and in experiment [3] (setting [6]) was 50 to 100% in each case.

In the case of `CC(C)c1ccc(N(C)C)cc1N1C(=O)CS/C1=N\C(=O)Nc1ccc(-c2ncn(-c3ccc(OC(F)(F)F)cc3)n2)cc1` [Compound J319, (Z)-1-(3-(5-(Dimethylamino)-2-isopropylphenyl)-4-oxothiazolidin-2-ylidene)-3-(4-(1-(4-(trifluoromethoxy)phenyl)-1H-1,2,4-triazol-3-yl)phenyl)urea], the pest or weed control at 200 µg/mL in experiment [1] (setting [4]) was in the range of 0 to 80%. Further, the pest or weed control at 50 µg/cm2 in experiment [2] (setting [5]) and in experiment [3] (setting [6]) was 50 to 100% throughout.

On to `Cc1ccc(COCc2ccc(OC(F)(F)F)cc2)c(N2C(=O)CS/C2=N\C(=O)Nc2ccc(-c3ncn(-c4ccc(OC(F)(F)F)cc4)n3)cc2F)c1` [Compound J570, (Z)-1-(2-Fluoro-4-(1-(4-(trifluoromethoxy)phenyl)-1H-1,2,4-triazol-3-yl)phenyl)-3-(3-(5-methyl-2-(((4-(trifluoromethoxy)benzyl)oxy)methyl)phenyl)-4-oxothiazolidin-2-ylidene)urea], for which the pest or weed control at 200 µg/mL in experiment [1] (read-out: GPA rating) lay within 0 to 80%. The pest or weed control at 50 µg/cm2 in experiment [2] (read-out: CL rating) and in experiment [3] (read-out: BAW rating) was 50 to 100% each time.

Turning to `CC(C)c1ccc(N(C)C)cc1N1C(=O)CS/C1=N\C(=O)Nc1ccc(-c2ncn(-c3ccc(S(=O)(=O)C(F)(F)F)cc3)n2)cc1F` [Compound J364, (Z)-1-(3-(5-(Dimethylamino)-2-isopropylphenyl)-4-oxothiazolidin-2-ylidene)-3-(2-fluoro-4-(1-(4-((trifluoromethyl)sulfonyl)phenyl)-1H-1,2,4-triazol-3-yl)phenyl)urea], the pest or weed control at 200 µg/mL in experiment [1] (read-out: GPA rating) was 0 to 80%. Further, the pest or weed control at 50 µg/cm2 in experiment [2] (read-out: CL rating) and in experiment [3] (read-out: BAW rating) was 50 to 100% each time.

On to `CCOCc1ccc(C)cc1N1C(=O)CS/C1=N\C(=O)Nc1ccc(-c2ncn(-c3ccc(OC(F)(F)C(F)(F)F)cc3)n2)cc1F` [Compound J663, (Z)-1-(3-(2-(Ethoxymethyl)-5-methylphenyl)-4-oxothiazolidin-2-ylidene)-3-(2-fluoro-4-(1-(4-(perfluoroethoxy)phenyl)-1H-1,2,4-triazol-3-yl)phenyl)urea], for which the pest or weed control at 200 µg/mL in experiment [1] (read-out: GPA rating) was 0 to 80%. Also, the pest or weed control at 50 µg/cm2 in experiment [2] (read-out: CL rating) and in experiment [3] (read-out: BAW rating) was 50 to 100% each time.

With `CC(C)c1ccc(N(C)C)cc1N1C(=O)CS/C1=N\C(=O)Nc1ccc(-c2ncn(-c3ccc(OC(F)(F)F)cc3)n2)cc1F` [Compound J318, (Z)-1-(3-(5-(Dimethylamino)-2-isopropylphenyl)-4-oxothiazolidin-2-ylidene)-3-(2-fluoro-4-(1-(4-(trifluoromethoxy)phenyl)-1H-1,2,4-triazol-3-yl)phenyl)urea], in experiment [1] (setting [4]), the pest or weed control at 200 µg/mL lay in the range of 0 to 80%. The pest or weed control at 50 µg/cm2 in experiment [2] (setting [5]) and in experiment [3] (setting [6]) was 50 to 100% each time.

Regarding `COc1ccc(C(C)C)c(N2C(=O)CS/C2=N\C(=O)Nc2ccc(-c3ncn(-c4cccc(C(F)(F)F)c4)n3)cc2F)c1` [Compound J152, (Z)-1-(2-Fluoro-4-(1-(3-(trifluoromethyl)phenyl)-1H-1,2,4-triazol-3-yl)phenyl)-3-(3-(2-isopropyl-5-methoxyphenyl)-4-oxothiazolidin-2-ylidene)urea], in experiment [1] (setting [4]), the pest or weed control at 200 µg/mL was 0 to 80%. Also, the pest or weed control at 50 µg/cm2 in experiment [2] (setting [5]) and in experiment [3] (setting [6]) was 50 to 100% each time.

As for `COC(C)c1ccc(C)cc1N1C(=O)CS/C1=N\C(=O)Nc1ccc(-c2ncn(-c3ccc(S(=O)(=O)C(F)(F)F)cc3)n2)cc1C` (stereo not drawn) [Compound J362, (Z)-1-(3-(2-(1-Methoxyethyl)-5-methylphenyl)-4-oxothiazolidin-2-ylidene)-3-(2-methyl-4-(1-(4-((trifluoromethyl)sulfonyl)phenyl)-1H-1,2,4-triazol-3-yl)phenyl)urea], the pest or weed control at 200 µg/mL in experiment [1] (read-out: GPA rating) lay in the range of 0 to 80%. The pest or weed control at 50 µg/cm2 in experiment [2] (read-out: CL rating) and in experiment [3] (read-out: BAW rating) was 50 to 100% throughout.

Regarding `CCc1cc(-c2ncn(-c3ccc(OC(F)(F)F)cc3)n2)ccc1NC(=O)/N=C1\SCC(=O)N1c1cc(C)ccc1COC` [Compound J72, (Z)-1-(2-Ethyl-4-(1-(4-(trifluoromethoxy)phenyl)-1H-1,2,4-triazol-3-yl)phenyl)-3-(3-(2-(methoxymethyl)-5-methylphenyl)-4-oxothiazolidin-2-ylidene)urea], the pest or weed control at 200 µg/mL in experiment [1] (setting [4]) lay in the range of 0 to 80%. In addition, the pest or weed control at 50 µg/cm2 in experiment [2] (setting [5]) and in experiment [3] (setting [6]) was 50 to 100% in each case.

Take `COC(C)c1ccc(C)cc1N1C(=O)CS/C1=N\C(=O)Nc1ccc(-c2ncn(-c3ccc(SC(F)(F)F)cc3)n2)cc1Cl` (stereo not drawn) [Compound J232, (Z)-1-(2-Chloro-4-(1-(4-((trifluoromethyl)thio)phenyl)-1H-1,2,4-triazol-3-yl)phenyl)-3-(3-(2-(1-methoxyethyl)-5-methylphenyl)-4-oxothiazolidin-2-ylidene)urea]: the pest or weed control at 200 µg/mL in experiment [1] (setting [4]) lay in the range of 0 to 80%. The pest or weed control at 50 µg/cm2 in experiment [2] (setting [5]) and in experiment [3] (setting [6]) was 50 to 100% throughout.

For `COC(C)c1ccc(C)cc1N1C(=O)CS/C1=N\C(=O)Nc1ccc(-c2ncn(-c3ccc(C#N)cc3)n2)cc1F` (stereo not drawn) [Compound J291, (Z)-1-(4-(1-(4-Cyanophenyl)-1H-1,2,4-triazol-3-yl)-2-fluorophenyl)-3-(3-(2-(1-methoxyethyl)-5-methylphenyl)-4-oxothiazolidin-2-ylidene)urea], in experiment [1] (setting [4]), the pest or weed control at 200 µg/mL was in the range of 0 to 80%. For the same molecule, the pest or weed control at 50 µg/cm2 in experiment [2] (setting [5]) and in experiment [3] (setting [6]) was 50 to 100% throughout.

Take `CC(C)c1ccc(N(C)C)cc1N1C(=O)CS/C1=N\C(=O)Nc1ccc(-c2ncn(-c3ccc(OC(F)(F)F)cc3)n2)cc1C(F)(F)F` [Compound J116, (Z)-1-(3-(5-(Dimethylamino)-2-isopropylphenyl)-4-oxothiazolidin-2-ylidene)-3-(4-(1-(4-(trifluoromethoxy)phenyl)-1H-1,2,4-triazol-3-yl)-2-(trifluoromethyl)phenyl)urea]: the pest or weed control at 200 µg/mL in experiment [1] (setting [4]) lay in the range of 0 to 80%. Also, the pest or weed control at 50 µg/cm2 in experiment [2] (setting [5]) and in experiment [3] (setting [6]) was 50 to 100% in each case.

Consider `Cc1ccc(COCC(F)(F)F)c(N2C(=O)CS/C2=N\C(=O)Nc2ccc(-c3ncn(-c4ccc(C(F)(F)F)cc4)n3)cc2F)c1` [Compound J168, (Z)-1-(2-Fluoro-4-(1-(4-(trifluoromethyl)phenyl)-1H-1,2,4-triazol-3-yl)phenyl)-3-(3-(5-methyl-2-((2,2,2-trifluoroethoxy)methyl)phenyl)-4-oxothiazolidin-2-ylidene)urea], for which the pest or weed control at 200 µg/mL in experiment [1] (setting [4]) lay in the range of 0 to 80%. Besides, the pest or weed control at 50 µg/cm2 in experiment [2] (setting [5]) and in experiment [3] (setting [6]) was 50 to 100% throughout.

As to `CCc1cc(-c2ncn(-c3ccc(OC(F)(F)F)cc3)n2)ccc1NC(=O)/N=C1\SCC(=O)N1c1cc(C)ccc1C(C)OC` (stereo not drawn) [Compound J74, (Z)-1-(2-Ethyl-4-(1-(4-(trifluoromethoxy)phenyl)-1H-1,2,4-triazol-3-yl)phenyl)-3-(3-(2-(1-methoxyethyl)-5-methylphenyl)-4-oxothiazolidin-2-ylidene)urea], in experiment [1] (setting [4]), the pest or weed control at 200 µg/mL was in the range of 0 to 80%. The pest or weed control at 50 µg/cm2 in experiment [2] (setting [5]) and in experiment [3] (setting [6]) was 50 to 100% throughout.
